Experimental data: patent US20060134719A1, “Novel serine protease” (priority 2002, published 2006)
*: point of attachment. AMC = Cc1cc(=O)oc2cc(N*)ccc12; Boc = CC(C)(C)OC(=O)*; OBn = c1ccc(CO*)cc1

Each substance was assayed against T1, purified protein solution (signal-FLAG-ARS-extracellular protein) (Homo sapiens, UniProt Q7Z410, INS90FVSSFQKTELEASCVGCSVLNYRDGNSSVLVHFQ) (assay: Enzyme activity of purified recombinant protein using synthetic peptides). Details: substrate 200 μM or 400 μM, ammonium hydrogen carbonate buffer, 37° C. for one hour; versus buffer control.
T1 construct: made in house; host or cells: HEK293-EBNA
T1 sequence (Q7Z410 with tags, fused parts or gaps INS90FVSSFQKTELEASCVGCSVLNYRDGNSSVLVHFQ): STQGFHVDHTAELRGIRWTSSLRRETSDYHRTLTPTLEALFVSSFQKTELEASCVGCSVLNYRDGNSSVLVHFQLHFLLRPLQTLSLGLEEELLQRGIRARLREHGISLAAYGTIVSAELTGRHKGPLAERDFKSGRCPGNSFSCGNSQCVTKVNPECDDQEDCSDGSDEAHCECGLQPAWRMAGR
T1 sequence (Q7Z410 with tags, fused parts or gaps): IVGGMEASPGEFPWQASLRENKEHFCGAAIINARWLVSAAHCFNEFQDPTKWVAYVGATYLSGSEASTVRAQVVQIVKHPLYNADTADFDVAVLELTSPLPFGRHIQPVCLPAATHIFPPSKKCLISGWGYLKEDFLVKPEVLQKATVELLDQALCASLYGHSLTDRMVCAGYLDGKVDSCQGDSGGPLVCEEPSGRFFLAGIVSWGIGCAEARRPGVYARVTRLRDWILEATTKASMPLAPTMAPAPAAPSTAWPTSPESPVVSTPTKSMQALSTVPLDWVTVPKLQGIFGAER
Assay type: biochemical
Procedure: Using a cell expressing the signal-FLAG-ARS-extracellular protein, a recombinant protein secreted into the liquid culture of the cell was extracted and purified. Specifically, the transfected HEK293EBNA cells were incubated by the same method as in Example 7 to about 80% confluence, from which the culture medium was then removed. Instead, a culture medium containing 4% serum was added, for further incubation under conditions of 37° C. and a carbon dioxide concentration of 5% for another 4 days. The culture supernatant was recovered 4 days later; filtered through a 0.22-μm filter (Zartor); and adsorbed on an ANTI-FLAG M2-AGAROSE AFFINITY GEL (Sigma) column equilibrated with TBS buffer by a routine method. Subsequently, about 50 ml of the TBS buffer was used for washing the column. Then, 6 ml of […] glycine hydrochloride solution of pH 2.2 was passed through the column to obtain each 1 ml fraction. To the separated fractions, 100 μl of 1 M Tris-HCl of pH 8 was immediately added to adjust the pH. The individual fractions thus obtained were confirmed by Western blotting using an antibody against the FLAG tag added to the N terminus (mouse anti-FLAG monoclonal antibody M2; Sigma). Specifically, the eluted fractions were electrophoresed on SDS/4% to 20% acrylamide gel (Daiichi Pure Chemicals Co., Ltd.) (under reducing conditions) and then transferred on PVDF membrane (Millipore) using a blotting apparatus. After adding Block Ace (DAINIPPON PHARMACEUTICAL CO., LTD.) for blocking to the transferred PVDF membrane, a biotinylated mouse anti-FLAG monoclonal antibody (M2; Sigma) and horseradish peroxidase-labeled streptoavidin (Amersham Pharmacia) were sequentially reacted. After reaction, it was confirmed that which eluted fractions contained the protein, using ECL Western blotting detection system (Amersham Pharmacia).
Using a synthetic peptides which have the C terminus labeled wit MCA (4-methyl-coumaryl-7-amide) by the same method as in Example 8, the cleavage activity of the enzyme purified in Example 10 was detected. Unless otherwise described, the method described in a paper (Yasuoka, S. et al., Am. J. Respir. Cell Mol Biol., Vol. 16, 300-308, 1997) was used. Specifically, using a synthetic peptides (Peptide Institute, Inc.) which have the C terminus labeled with MCA as substrates, the substrates were diluted with ammonium hydrogen carbonate buffer to become a final concentration of 200 μM or 400 μM in a 96-well plate. After the purified protein solution obtained in Example 10 or the ammonium hydrogen carbonate buffer as a control was added to the substrate solutions, the resulting mixtures were incubated at 37° C. for one hour. Subsequently, the fluorescence of AMC (7-amino-4-methyl-coumarin) released from the synthetic peptide by enzymatic cleavage was measured at a wavelength of 460 nm for measurement, using an excitation wavelength of 390 nm with a fluorescent plate reader (SAFIRE manufactured by TECAN). In FIG. 1, the open bar expresses buffer control, while the solid bar expresses the case of using purified protein solution. The first bar represents the case of using Boc-Glu(OBzl)-Ala-Arg-MCA as a substrate; the second bar represents the case of using Boc-Phe-Ser-Arg-MCA as a substrate; the third bar represents the case of using Boc-Leu-Ser-Thr-Arg-MCA as a substrate; the fourth bar represents the case of using Boc-Gln-Arg-Arg-MCA as a substrate; the fifth bar represents the case of using Suc-Ala-Ala-Pro-Phe-MCA as a substrate; the sixth bar represents the case of using Suc-Ala-Pro-Ala-MCA as a substrate; the seventh bar represents the case of using Boc-Glu-Lys-Lys-MCA as a substrate; the eighth bar represents the case of using Boc-Leu-Lys-Arg-MCA as a substrate; the ninth bar represents the case of using Boc-Leu-Gly-Arg-MCA as a substrate; and the tenth bar represents the case of using Boc-Asp(OBzl)-Pro-Arg-MCA as a substrate.

cleavage of synthetic peptide by purified protein solution (fluorescence of released AMC)	Substance
showed the cleavage activities	Boc-Gln-Arg-Arg-{AMC}
showed the cleavage activities	Boc-Phe-Ser-Arg-{AMC}
showed the cleavage activities	Boc-Glu(OBn)-Ala-Arg-{AMC}
